According to patent publication US20250034108A1, “SODIUM CHANNEL BLOCKERS” (NOVARTIS AG, priority 2023, published 2025):

Experiments:
human Nav1.5 [1] = molecular target: T1, human Nav1.5 (Homo sapiens (Human), UniProt Q14524); assay: Qpatch automated patch-clamp, peak Nav1.5 current inhibition, 5-Hz AF-like assay (holding potential -85 mV); assay type: cell-based; conditions: CHO-K1 cells stably expressing human Nav1.5, holding potential -85 mV, Table 5, read-out: Nav1.5 IC50 (5 Hz, AF Rate)
Outline: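 CHO-K1 cells stably expressing human Nav1.5, whole-cell automated patch-clamp at room temperature, CsF-based internal. Compounds pre-incubated 3 min each at ascending 0-30 μM; +10 to −85 mV ramp (150 ms) applied at 5 Hz for 12 s from −85 mV holding. IC50 from last-pulse peak current, vehicle-normalized for run-down.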

human Nav1.5 [2] = molecular target: T1, human Nav1.5; assay: Qpatch automated patch-clamp, peak Nav1.5 current inhibition, 1 Hz with 50 nM ATX-II (holding potential -100 mV); assay type: cell-based; conditions: CHO-K1 cells stably expressing human Nav1.5, read-out: Nav1.5 IC50 (1 Hz, ATXII)
Outline: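 CHO-K1 cells stably expressing human Nav1.5, whole-cell recording at room temperature; 3-min pre-incubation at 0–30 uM ascending, with or without 50 nM ATX-II. Pulses to −10 mV (400 ms) from −100 mV at 1 Hz for 25 s; last-pulse peak current normalized to pre-compound and DMSO run-down, IC50 fitted.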

human Nav1.5 [3] = molecular target: T1, human Nav1.5; assay: Qpatch automated patch-clamp, peak Nav1.5 current inhibition, 1 Hz sinus rate, ventricular condition (holding potential -100 mV); assay type: cell-based; conditions: CHO-K1 cells stably expressing human Nav1.5, without ATX-II
Description: Electrophysiology was used to measure the ionic currents in isolated living cells using automated patch-clamp recording, performed using an automated patch-clamp machine called Qpatch (Sophion Bioscience). Two different assay conditions were used to identify compounds with atrial-selective potential. The 5-Hz AF-like assay has more depolarized holding potential at −85 mV to mimic atrial resting membrane potential (RMP) and was used to identify compounds of strong rate-dependence. Active, rate-dependent compounds were then screened at 1 Hz (i.e., sinus rate) at the holding potential of −100 mV to mimic the ventricular scenario and help identify compounds with the largest potency separation or attenuation from the 5-Hz AF-like assay. Such compounds have the potential for treating AF without the QRS liability inherent to Class Ic drugs.
The sodium current conducted through a cell (via Nav1.5) or electrical signals were processed through a low-pass filter at 5 KHz, re-digitalized and acquired at 20 kHz. Series resistance was not compensated and leak subtraction was performed.
1 to 3 million Chinese Hamster Ovary cells (also known as CHO-K1) stably expressing human Nav1.5 were seeded into […] culture flasks with 25 mL medium (consisting of Gibco Dulbecco's Modified Eagle Medium as a base medium with 1% MEM non-essential amino acids, 400 μg/mL Geneticin, 5 μg/mL puromycin and 10% fetal bovine serum) 48-72 hours prior to the experiments. On the day of the experiment, cells were washed once with phosphate-buffered saline (also known as PBS; Gibco) detached with Detachin™ (Genlantis), and re-suspended in CHO—S-SFM II media (Gibco) at 200,000 cells/mL. The CHO—S-SFM II was replaced with assay solutions prior to the assays. Whole-cell currents were recorded at room temperature in the whole-cell configuration. The external aqueous assay solution (pH=7.4; Osm=307-315) contained the following (the concentration for each component is expressed in parentheses in mM): NaCl (140 mM), KCl (4 mM), CaCl2) (2 mM), MgCl2 (1 mM), 4-(2-hydroxyethyl)-1-piperazineethanesulfonic acid, also known as HEPES (10 mM), and glucose (5 mM). The internal aqueous assay solution (pH=7.2; Osm=292-295) contained the following (the concentration for each component is expressed in parentheses in mM): CsF (110 mM), CsCl (10 mM), NaCl (10 mM), HEPES (10 mM), and ethylene glycolbis(β-aminoethyl ether)-N,N,N′,N′-tetraacetic acid, also known as EGTA (10 mM).
To assess peak Nav1.5 current inhibition mimicking a ventricular condition at sinus rate with or without ATX-II (Nav1.5 IC50 (1 Hz, ATXII) (μM) or (1 Hz, Sinus Rate) (μM)), compounds were first prepared at 10 mM in DMSO, and cells were pre-incubated with test compounds at each concentration for 3 min. in an ascending order of 0, 0.37, 1.1, 3.3, 10 and 30 uM. In the assay with ATX-II (Alomone Labs), 50 nM ATX-II was included during the 3-min. compound incubation. A square pulse (−10 mV; 400 ms and a holding potential at −100 mV) was run at 1 Hz for 25 s until no further inhibition or Nav1.5 current change was observed. The percent inhibition (expressed as ([Iafter compound treatment/Ibefore compound treatment]×100%) is calculated by normalizing the peak current amplitude at the last pulse of each of the 6 compound concentrations by the amplitude before exposure to the test compound. The compiled data was further normalized by vehicle control (DMSO) to account for Nav1.5 current run-down, and IC50 was calculated by Matlab (MathWorks, USA).

[4] = Hygroscopicity / water uptake of crystalline forms of Example 1; assay type: physicochemical; conditions: for hygroscopicity: crystalline form

T1 sequence (Q14524 whole entry): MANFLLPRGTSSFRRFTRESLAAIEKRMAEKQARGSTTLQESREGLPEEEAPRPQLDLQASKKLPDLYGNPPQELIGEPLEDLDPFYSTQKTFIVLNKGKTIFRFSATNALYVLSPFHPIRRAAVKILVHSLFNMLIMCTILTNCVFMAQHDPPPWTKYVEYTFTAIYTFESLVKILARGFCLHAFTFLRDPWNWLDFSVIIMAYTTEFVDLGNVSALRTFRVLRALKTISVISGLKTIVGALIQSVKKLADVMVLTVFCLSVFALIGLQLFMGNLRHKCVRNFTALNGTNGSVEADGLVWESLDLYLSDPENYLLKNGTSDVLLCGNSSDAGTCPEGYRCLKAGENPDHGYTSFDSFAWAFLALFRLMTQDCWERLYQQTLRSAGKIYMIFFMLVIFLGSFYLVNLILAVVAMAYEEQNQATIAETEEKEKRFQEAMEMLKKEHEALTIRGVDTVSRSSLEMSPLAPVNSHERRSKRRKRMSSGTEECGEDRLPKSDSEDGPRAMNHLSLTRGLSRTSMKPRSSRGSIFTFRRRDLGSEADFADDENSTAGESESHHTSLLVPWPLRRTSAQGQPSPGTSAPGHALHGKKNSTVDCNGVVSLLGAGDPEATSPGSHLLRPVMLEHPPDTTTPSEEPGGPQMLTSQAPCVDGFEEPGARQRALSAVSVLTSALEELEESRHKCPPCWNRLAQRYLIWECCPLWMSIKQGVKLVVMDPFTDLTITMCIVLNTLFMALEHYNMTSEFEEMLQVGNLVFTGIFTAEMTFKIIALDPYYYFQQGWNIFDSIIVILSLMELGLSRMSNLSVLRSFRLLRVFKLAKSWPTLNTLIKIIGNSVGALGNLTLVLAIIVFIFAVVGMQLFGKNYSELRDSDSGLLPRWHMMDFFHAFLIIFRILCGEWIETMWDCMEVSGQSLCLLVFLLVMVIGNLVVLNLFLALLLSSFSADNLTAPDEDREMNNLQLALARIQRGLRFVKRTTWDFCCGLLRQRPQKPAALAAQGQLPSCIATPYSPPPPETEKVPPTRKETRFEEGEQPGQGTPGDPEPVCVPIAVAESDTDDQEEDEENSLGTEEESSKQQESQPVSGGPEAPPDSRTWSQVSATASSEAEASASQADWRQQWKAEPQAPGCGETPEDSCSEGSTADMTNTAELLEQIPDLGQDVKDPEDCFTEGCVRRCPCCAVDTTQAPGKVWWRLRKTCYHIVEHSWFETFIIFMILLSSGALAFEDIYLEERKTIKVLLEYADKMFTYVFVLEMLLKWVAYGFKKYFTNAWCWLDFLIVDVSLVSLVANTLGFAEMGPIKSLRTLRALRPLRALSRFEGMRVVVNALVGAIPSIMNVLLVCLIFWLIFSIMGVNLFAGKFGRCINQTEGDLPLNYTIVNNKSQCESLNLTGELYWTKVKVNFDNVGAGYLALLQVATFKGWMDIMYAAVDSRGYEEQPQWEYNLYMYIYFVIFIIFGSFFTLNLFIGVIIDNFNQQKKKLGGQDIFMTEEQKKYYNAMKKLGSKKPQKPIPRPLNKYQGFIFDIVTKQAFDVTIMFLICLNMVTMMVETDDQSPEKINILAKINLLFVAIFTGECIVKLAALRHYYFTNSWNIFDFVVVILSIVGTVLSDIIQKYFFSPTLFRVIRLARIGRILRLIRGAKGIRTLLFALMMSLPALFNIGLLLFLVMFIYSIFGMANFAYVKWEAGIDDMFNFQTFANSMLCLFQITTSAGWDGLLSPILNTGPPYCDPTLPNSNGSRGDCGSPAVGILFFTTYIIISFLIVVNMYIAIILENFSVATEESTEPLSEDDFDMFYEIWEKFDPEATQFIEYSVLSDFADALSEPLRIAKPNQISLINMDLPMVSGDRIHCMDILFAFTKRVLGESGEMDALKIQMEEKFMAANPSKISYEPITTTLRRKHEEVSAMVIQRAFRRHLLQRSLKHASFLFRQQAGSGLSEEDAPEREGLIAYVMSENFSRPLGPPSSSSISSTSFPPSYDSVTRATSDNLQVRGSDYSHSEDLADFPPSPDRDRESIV

| SMILES | IC50 (human Nav1.5 [1]) [µM] | IC50 (human Nav1.5 [2]) [µM] | IC50 (human Nav1.5 [3]) [µM] | reversible water uptake ([4]; at 90% relative humidity) | hygroscopicity [4] |
| --- | --- | --- | --- | --- | --- |
| CC(O)(CS(N)(=O)=O)c1nc(-c2nnn(Cc3cc(OC(F)(F)F)ccc3F)n2)ccc1F (single isomer, unassigned) [Example 44, (R or S)-2-(3-fluoro-6-(2-(2-fluoro-5-(trifluoromethoxy)benzyl)-2H-tetrazol-5-yl)pyridin-2-yl)-2-hydroxypropane-1-sulfonamide] | 4.6 | 19 | > 30 | – | – |
| CC(O)(CS(N)(=O)=O)c1nc(-c2nnn(Cc3cc(OC(F)(F)F)ccc3F)n2)ccc1F (single isomer, unassigned) [Example 45, (R or S)-2-(3-fluoro-6-(2-(2-fluoro-5-(trifluoromethoxy)benzyl)-2H-tetrazol-5-yl)pyridin-2-yl)-2-hydroxypropane-1-sulfonamide] | 4.8 | > 30 | > 30 | – | – |
| CC(O)(CS(N)(=O)=O)c1cccc(-c2nnn(Cc3cc(OC4CC4)ccc3F)n2)n1 (single isomer, unassigned) [Example 46, (R or S)-2-(6-(2-(5-cyclopropoxy-2-fluorobenzyl)-2H-tetrazol-5-yl)pyridin-2-yl)-2-hydroxypropane-1-sulfonamide] | 8.3 | > 30 | > 30 | – | – |
| CC(O)(CS(N)(=O)=O)c1cccc(-c2nnn(Cc3cc(OC4CC4)ccc3F)n2)n1 (single isomer, unassigned) [Example 47, (R or S)-2-(6-(2-(5-cyclopropoxy-2-fluorobenzyl)-2H-tetrazol-5-yl)pyridin-2-yl)-2-hydroxypropane-1-sulfonamide] | 3.9 | 13 | 27 | – | – |
| CC(C(O)c1cccc(-c2nnn(Cc3cc(OC(F)(F)F)ccc3F)n2)n1)S(N)(=O)=O (single isomer, unassigned) [Example 52, (JR or 1S,2R or 2S)-1-(6-(2-(2-fluoro-5-(trifluoromethoxy)benzyl)-2H-tetrazol-5-yl)pyridin-2-yl)-1-hydroxypropane-2-sulfonamide] | 2.9 | 22 | 49 | – | – |
| C[C@](O)(CS(N)(=O)=O)c1cccc(-c2nnn(Cc3cc(OC(F)(F)F)ccc3F)n2)n1 [Example 1, (R)-2-(6-(2-(2-fluoro-5-(trifluoromethoxy)benzyl)-2H-tetrazol-5-yl)pyridin-2-yl)-2-hydroxypropane-1-sulfonamide] | 3.1 | 19 | 22 | – | – |
| C[C@](O)(CS(N)(=O)=O)c1cccc(-c2nnn(Cc3cc(OC(F)(F)F)ccc3F)n2)n1 [Modification A-1, (R)-2-(6-(2-(2-fluoro-5-(trifluoromethoxy)benzyl)-2H-tetrazol-5-yl)pyridin-2-yl)-2-hydroxypropane-1-sulfonamide] | – | – | – | about 0.10% | not hygroscopic |
| C[C@](O)(CS(N)(=O)=O)c1cccc(-c2nnn(Cc3cc(OC(F)(F)F)ccc3F)n2)n1 [Modification A-2, (R)-2-(6-(2-(2-fluoro-5-(trifluoromethoxy)benzyl)-2H-tetrazol-5-yl)pyridin-2-yl)-2-hydroxypropane-1-sulfonamide] | – | – | – | – | hygroscopic and shows gel formation at 70% relative humidity and above |
| C[C@](O)(CS(N)(=O)=O)c1cccc(-c2nnn(Cc3cc(OC(F)(F)F)ccc3F)n2)n1 [Modification A-3, (R)-2-(6-(2-(2-fluoro-5-(trifluoromethoxy)benzyl)-2H-tetrazol-5-yl)pyridin-2-yl)-2-hydroxypropane-1-sulfonamide] | – | – | – | – | hygroscopic and shows gel formation at 70% relative humidity and above |
